In BindingDB's records for PubMed 21481795 (Tufts Medical Center):

Legend:
[1] = biological target: Tyrosine-protein kinase Tec (Homo sapiens) (UniProt P42680); experiment: Inhibition of human wild type TEC using PolyEY as substrate preincubated for 2 hrs followed by ATP addition and measured every 2 mins for […] by spectrophotometric analysis
[2] = biological target: Serine/threonine-protein kinase OSR1 (OXSR1) (Homo sapiens) (UniProt O95747); experiment: Inhibition of human OSR1 preincubated for 2 hrs followed by ATP addition and measured every 2 mins for […] by spectrophotometric analysis
Chain of Serine/threonine-protein kinase OSR1 (OXSR1) (Homo sapiens) (O95747 whole entry, looked up): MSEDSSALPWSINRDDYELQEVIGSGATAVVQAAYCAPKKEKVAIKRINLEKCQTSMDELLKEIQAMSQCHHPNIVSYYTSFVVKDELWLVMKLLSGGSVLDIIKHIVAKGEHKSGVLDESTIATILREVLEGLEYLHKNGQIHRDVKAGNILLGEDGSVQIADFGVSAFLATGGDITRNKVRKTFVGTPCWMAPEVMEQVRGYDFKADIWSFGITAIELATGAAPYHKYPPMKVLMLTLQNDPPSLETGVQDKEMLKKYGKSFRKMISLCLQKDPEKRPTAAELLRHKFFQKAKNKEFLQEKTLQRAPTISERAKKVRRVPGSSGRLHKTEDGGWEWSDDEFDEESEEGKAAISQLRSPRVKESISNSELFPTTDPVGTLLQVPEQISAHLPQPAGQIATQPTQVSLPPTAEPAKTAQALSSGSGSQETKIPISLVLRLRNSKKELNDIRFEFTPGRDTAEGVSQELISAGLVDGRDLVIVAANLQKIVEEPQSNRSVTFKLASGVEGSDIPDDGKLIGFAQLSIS

[3] = biological target: 3-phosphoinositide-dependent protein kinase 1 (PDPK1) (Homo sapiens) (UniProt O15530); experiment: Inhibition of human wild type PDK1 using bio-4xCHKT as substrate preincubated for 2 hrs followed by ATP addition and measured every 2 mins for […] by spectrophotometric analysis

Chain of Tyrosine-protein kinase Tec (Homo sapiens) (P42680 whole entry, looked up): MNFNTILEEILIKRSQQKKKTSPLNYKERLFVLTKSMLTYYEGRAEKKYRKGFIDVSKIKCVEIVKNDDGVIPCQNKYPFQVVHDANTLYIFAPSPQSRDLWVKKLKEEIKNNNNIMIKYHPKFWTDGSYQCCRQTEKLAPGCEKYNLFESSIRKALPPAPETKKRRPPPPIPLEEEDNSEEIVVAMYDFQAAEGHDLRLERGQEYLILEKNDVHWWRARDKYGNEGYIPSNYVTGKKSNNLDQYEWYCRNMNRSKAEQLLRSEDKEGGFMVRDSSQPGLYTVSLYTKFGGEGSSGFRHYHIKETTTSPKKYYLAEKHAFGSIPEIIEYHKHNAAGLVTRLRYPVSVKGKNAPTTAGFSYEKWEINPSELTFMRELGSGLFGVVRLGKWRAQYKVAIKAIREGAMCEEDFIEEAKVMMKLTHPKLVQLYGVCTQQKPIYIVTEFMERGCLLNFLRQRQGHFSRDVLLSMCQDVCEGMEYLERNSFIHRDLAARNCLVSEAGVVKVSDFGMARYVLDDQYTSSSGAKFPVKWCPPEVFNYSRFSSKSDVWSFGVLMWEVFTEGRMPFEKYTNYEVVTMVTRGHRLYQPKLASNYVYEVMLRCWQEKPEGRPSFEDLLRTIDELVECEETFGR

- IC50 [1]: > 1000 nM
- IC50 [2]: > 1000 nM
- IC50 [3]: > 1000 nM
Structure (SMILES): CNC(=O)c1cc(Oc2ccc(NC(=O)Nc3cc(C(C)(C)C)nn3-c3ccc4ncccc4c3)c(F)c2)ccn1 [Rebastinib]
